Experimental data published in patent US12023319B2, “Carboxylic acid aromatic amides” (priority 2016, dated 2024).

Key:
[1] = target: T1, native human Bradykinin B1 receptor (Homo sapiens, UniProt P46663); assay: Calcium flux assay (FLIPR) with IMR-90 human fibroblasts expressing Bradykinin B1 receptor after IL-1beta induction (hB1 IMR-90); assay type: cell-based; settings: IMR-90 human fibroblasts after IL-1beta induction, read-out: hB1 IMR90 IC50
T1 construct: which express native human Bradykinin B1 receptor after induction with human IL-1beta; Coriell Institute; host or cells: IMR-90 human foetal lung fibroblasts, induced with human IL-1beta
T1 sequence (P46663 1-353): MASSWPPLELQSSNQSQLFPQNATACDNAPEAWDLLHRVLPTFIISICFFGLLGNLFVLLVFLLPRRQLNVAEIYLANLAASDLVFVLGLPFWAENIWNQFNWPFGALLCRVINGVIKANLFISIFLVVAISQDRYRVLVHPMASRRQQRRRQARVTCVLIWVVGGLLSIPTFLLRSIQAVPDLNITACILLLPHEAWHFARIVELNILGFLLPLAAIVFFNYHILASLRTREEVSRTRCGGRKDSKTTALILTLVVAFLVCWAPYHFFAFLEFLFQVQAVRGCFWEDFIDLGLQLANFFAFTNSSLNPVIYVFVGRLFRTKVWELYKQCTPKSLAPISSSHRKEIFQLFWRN
Experimental: Calcium Flux Assay (FLIPR) with Human Fibroblasts Expressing Bradykinin B1 Receptor (hB1 IMR-90)
The Calcium flux Assay was carried out utilising IMR-90 human foetal lung fibroblasts (American Type Culture Collection, Rockville, MD; and Coriell Institute, Camden, New Jersey), which express native human Bradykinin B1 receptor after induction with human IL-1beta.
The fibroblasts were cultured in complete growth media comprised of Dulbecco's modified Eagle's medium (DMEM; Sigma) containing 10% foetal bovine serum, 4 mM L-glutamine, and 1% nonessential amino acids. The cells were maintained in a humidified atmosphere with 5% CO2 at 37° C. and were sub-cultured at a ratio of 1:3, every other day.
For the assay, IMR-90 fibroblasts were harvested using TrypLE Express (GIBCO/Invitrogen) and seeded into 384-well plates (Corning Cellbinding Surface, Cat. 3683) at a density of 15000 cells/well. The following day, cells were treated with 0.35 ng/mL human IL-1beta in 10% FBS/MEM for 3 h to up-regulate Bradykinin B1 receptor. Induced cells were loaded with fluorescent calcium indicator by incubation with 2.5 μM Fluo-4/AM (Invitrogen) at 37° C., 5% CO2 for 2 h in the presence of 2.5 mM probenecid in 1% FBS/MEM. […] Compound examples were assayed at 8 concentrations in triplicate. […] A peptide antagonist Lys-(Des-Arg-Leu)-Bradykinin (Bachem, Brackley) at 20 µM was used to determine the full inhibition as control. IC50 values were determined by the same way described for the FLI PR assay with recombinant cells.

[2] = target: T2, human Bradykinin B1 receptor (Homo sapiens, UniProt P46663); assay: Calcium flux assay (FLIPR), CHO-K1 cells expressing human Bradykinin B1 receptor, absence of 0.1% BSA (hB1 free IC50); assay type: cell-based; settings: absence of 0.1% BSA in assay buffer
T2 construct: host or cells: CHO-K1
T2 sequence (P46663 1-353): T1 sequence (P46663 1-353)
Summary of the method: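 CHO-K1 hB1-D1 cells, dye-loaded, given compounds (8 concentrations, triplicate, 1% DMSO) 30 min at 28° C, then stimulated with selective B1 agonist peptide; Ca2+ fluorescence read at 538 nm on FLIPR. Peak response normalised to DMSO and 20 µM Lys-(Des-Arg-Leu)-Bradykinin full inhibition; IC50 fitted.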

| Compound | IC50 [1] | IC50 [2] |
| --- | --- | --- |
| O=C(O)c1cc(NC(=O)C2(c3ccc(OC(F)(F)F)cc3F)CC2)ccc1-c1cnn(C2CCC2)c1 [Example 51, 2-(1-Cyclobutyl-1H-pyrazol-4-yl)-5-[({1-[2-fluoro-4-(trifluoromethoxy)phenyl]cyclopropyl}carbonyl)amino]benzoic acid] | 19 nM | 17 nM |
| O=C(O)c1cc(NC(=O)C2(c3cc(Cl)ccc3F)CC2)ccc1-c1cnn(C2CCC2)c1 [Example 54, 5-({[1-(5-Chloro-2-fluorophenyl)cyclopropyl]carbonyl}amino)-2-(1-cyclobutyl-1H-pyrazol-4-yl)benzoic acid] | 22 nM | 26 nM |
| CC(C)(C)c1cn(-c2ccc(NC(=O)C3(c4ccc(C(F)(F)F)cc4F)CC3)cc2C(=O)O)cn1 [Example 67, 2-(4-tert-Butyl-1H-imidazol-1-yl)-5-[({1-[2-fluoro-4-(trifluoromethyl)phenyl]cyclopropyl}carbonyl)amino]benzoic acid] | 41 nM | 61 nM |
| CC(C)n1cc(-c2ccc(NC(=O)C3(c4ccc(C(F)(F)F)cc4F)CC3)cc2C(=O)O)cn1 [Example 70, 5-[({1-[2-Fluoro-4-(trifluoromethyl)phenyl]cyclopropyl}carbonyl)amino]-2-[1-(propan-2-yl)-1H-pyrazol-4-yl]benzoic acid] | 49 nM | 34 nM |
| CC(C)(C)n1cc(-c2ccc(NC(=O)C3(c4ccc(OC(F)(F)F)cc4F)CC3)cc2C(=O)O)cn1 [Example 73, 2-(1-tert-Butyl-1H-pyrazol-4-yl)-5-[({1-[2-fluoro-4-(trifluoromethoxy)phenyl]cyclopropyl}carbonyl)amino]benzoic acid] | 44 nM | 21 nM |
| CC(C)Cn1cc(-c2ccc(NC(=O)C3(c4ccc(OC(F)(F)F)cc4F)CC3)cc2C(=O)O)cn1 [Example 75, 5-[({1-[2-Fluoro-4-(trifluoromethoxy)phenyl]cyclopropyl}carbonyl)amino]-2-[1-(2-methylpropyl)-1H-pyrazol-4-yl]benzoic acid] | 18 nM | 11 nM |
| O=C(O)c1cc(NC(=O)C2(c3ccc(OC(F)(F)F)cc3F)CC2)cc(F)c1-c1ccc(C(F)F)nc1 [Example 95, 2-[6-(Difluoromethyl)pyridin-3-yl]-3-fluoro-5-[({1-[2-fluoro-4-(trifluoromethoxy)phenyl]cyclopropyl}carbonyl)amino]benzoic acid] | 21 nM | 13 nM |
| CCC(F)(F)c1ccc(-c2c(F)cc(NC(=O)C3(c4ccc(C(F)(F)F)cc4F)CC3)cc2C(=O)O)cn1 [Example 96, 2-[6-(1,1-Difluoropropyl)pyridin-3-yl]-3-fluoro-5-[({1-[2-fluoro-4-(trifluoromethyl)phenyl]cyclopropyl}carbonyl)amino]benzoic acid] | 25 nM | 8.1 nM |
| CCC(F)(F)c1ccc(-c2c(F)cc(NC(=O)C3(c4ccc(OC(F)(F)F)cc4F)CC3)cc2C(=O)O)cn1 [Example 97, 2-[6-(1,1-Difluoropropyl)pyridin-3-yl]-3-fluoro-5-[({1-[2-fluoro-4-(trifluoromethoxy)phenyl]cyclopropyl}carbonyl)amino]benzoic acid] | 25 nM | 10 nM |
| CCC(F)(F)c1ccc(-c2c(Cl)cc(NC(=O)C3(c4ccc(C(F)(F)F)cc4F)CC3)cc2C(=O)O)cn1 [Example 105, 3-Chloro-2-[6-(1,1-difluoropropyl)pyridin-3-yl]-5-[({1-[2-fluoro-4-(trifluoromethyl)phenyl]cyclopropyl}carbonyl)amino]benzoic acid] | 74 nM | 17 nM |
| CCC(F)(F)c1ccc(-c2c(Cl)cc(NC(=O)C3(c4ccc(OC(F)(F)F)cc4F)CC3)cc2C(=O)O)cn1 [Example 106, 3-Chloro-2-[6-(1,1-difluoropropyl)pyridin-3-yl]-5-[({1-[2-fluoro-4-(trifluoromethoxy)phenyl]cyclopropyl}carbonyl)amino]benzoic acid] | 35 nM | 8.4 nM |
| Cc1cc(NC(=O)C2(c3ccc(C(F)(F)F)cc3F)CC2)cc(C(=O)O)c1-c1cnn(C2CCC2)c1 [Example 107, 2-(1-Cyclobutyl-1H-pyrazol-4-yl)-5-[({1-[2-fluoro-4-(trifluoromethyl)phenyl]cyclopropyl}carbonyl)amino]-3-methylbenzoic acid] | 36 nM | 22 nM |

Molecules with a lower IC50 [1], results first:

| IC50 [1] | IC50 [2] | Compound |
| --- | --- | --- |
| 15 nM | 32 nM | O=C(O)c1cc(NC(=O)C2(c3ccc(Cl)cc3F)CC2)ccc1-c1cnn(C2CCC2)c1 [Example 53, 5-({[1-(4-Chloro-2-fluorophenyl)cyclopropyl]carbonyl}amino)-2-(1-cyclobutyl-1H-pyrazol-4-yl)benzoic acid] |
| 15 nM | 17 nM | CC(C)Cn1cc(-c2ccc(NC(=O)C3(c4ccc(C(F)(F)F)cc4F)CC3)cc2C(=O)O)cn1 [Example 74, 5-[({1-[2-Fluoro-4-(trifluoromethyl)phenyl]cyclopropyl}carbonyl)amino]-2-[1-(2-methylpropyl)-1H-pyrazol-4-yl]benzoic acid] |
| 13 nM | 17 nM | CC(C)(C)Cn1cc(-c2ccc(NC(=O)C3(c4ccc(OC(F)(F)F)cc4F)CC3)cc2C(=O)O)cn1 [Example 77, 2-[1-(2,2-Dimethylpropyl)-1H-pyrazol-4-yl]-5-[({1-[2-fluoro-4-(trifluoromethoxy)phenyl]cyclopropyl}carbonyl)amino]benzoic acid] |
| 10 nM | 32 nM | CC(C)n1cc(-c2c(F)cc(NC(=O)C3(c4ccc(C(F)(F)F)cc4F)CC3)cc2C(=O)O)cn1 [Example 88, 3-Fluoro-5-[({1-[2-fluoro-4-(trifluoromethyl)phenyl]cyclopropyl}carbonyl)amino]-2-[1-(propan-2-yl)-1H-pyrazol-4-yl]benzoic acid] |
| 14 nM | 32 nM | CC(C)n1cc(-c2c(F)cc(NC(=O)C3(c4ccc(OC(F)(F)F)cc4F)CC3)cc2C(=O)O)cn1 [Example 89, 3-Fluoro-5-[({1-[2-fluoro-4-(trifluoromethoxy)phenyl]cyclopropyl}carbonyl)amino]-2-[1-(propan-2-yl)-1H-pyrazol-4-yl]benzoic acid] |
| 7.6 nM | 20 nM | CC(C)(C)c1cn(-c2c(F)cc(NC(=O)C3(c4ccc(OC(F)(F)F)cc4F)CC3)cc2C(=O)O)cn1 [Example 91, 2-(4-tert-Butyl-1H-imidazol-1-yl)-3-fluoro-5-[({1-[2-fluoro-4-(trifluoromethoxy)phenyl]cyclopropyl}carbonyl)amino]benzoic acid] |
| 13 nM | 8.9 nM | O=C(O)c1cc(NC(=O)C2(c3ccc(C(F)(F)F)cc3F)CC2)cc(Cl)c1-c1cnn(C2CCC2)c1 [Example 100, 3-Chloro-2-(1-cyclobutyl-1H-pyrazol-4-yl)-5-[({1-[2-fluoro-4-(trifluoromethyl)phenyl]cyclopropyl}carbonyl)amino]benzoic acid] |
| 5.5 nM | 3.5 nM | O=C(O)c1cc(NC(=O)C2(c3ccc(OC(F)(F)F)cc3F)CC2)cc(Cl)c1-c1cnn(C2CCC2)c1 [Example 101, 3-Chloro-2-(1-cyclobutyl-1H-pyrazol-4-yl)-5-[({1-[2-fluoro-4-(trifluoromethoxy)phenyl]cyclopropyl}carbonyl)amino]benzoic acid] |
| 13 nM | 14 nM | Cc1cc(NC(=O)C2(c3ccc(OC(F)(F)F)cc3F)CC2)cc(C(=O)O)c1-c1cnn(C2CCC2)c1 [Example 108, 2-(1-Cyclobutyl-1H-pyrazol-4-yl)-5-[({1-[2-fluoro-4-(trifluoromethoxy)phenyl]cyclopropyl}carbonyl)amino]-3-methylbenzoic acid] |
